Three compounds from PMC11946258, “Self-Assembly, Antimicrobial Properties and Biodegradability of Ester-Functionalized Choline-Based Surface-Active Ionic Liquids” (Molecules, 2025) can be followed below.

Where “and” joins values, the source holds several entries; their conditions need not be identical. Identical values can stand only once.

Series [1] is described as follows: Critical micelle concentration by pyrene fluorescence. It counts as physicochemical. To be noted: fluorescence (pyrene I1/I3), aqueous solution, 25 °C. As to the method: The aggregation behavior of ester-functionalized choline-based ILs was investigated through fluorescence measurements using pyrene as a solvatochromic probe. By monitoring the polarity of pyrene’s microenvironment at varying IL concentrations, the intensity ratio of pyrene’s first (I1) and third (I3) vibronic peaks was analyzed (Figure 3). A sharp decline in the I1/I3 ratio indicated the formation of IL aggregates. The critical micelle concentration (CMC) was determined as the midpoint of the transition, with the data fitting well to sigmoidal Boltzmann-type curves.
A Shimadzu RF 540 spectrofluorometer equipped with cell holder thermostatical controlled at 25 °C was used to detect steady-state fluorescence. The fluorescent probe, pyrene, was used at a concentration of 1 × 10^−6 M. After irradiation at 332 nm, the fluorescence emission spectra of pyrene dissolved in aqueous CnECholBr solutions were recorded from 340 to 450 nm.

The subject of series [2] is erythrocytes from rabbit blood. The series is described as follows: Hemolytic activity. It counts as cell-based. The note with it: concentration inducing 50% hemolysis, PBS pH 7.4, 10 min. As to the method:
To perform an initial assessment of cell toxicity, hemolysis has been employed. The hemolytic activity of ester-functionalized choline-based ILs was determined by mesuring the release of haemoglobin in erythrocytes from rabbit blood samples in the presence of these compounds. The HC50 values, representing the concentracion inducing 50% hemolysis, were calculated from the plots of the percentages of hemolysis versus CnECholBr concentration (Figure 7). The HC50 values are compiled in Table 4.
Rabbit blood samples, used to prepare the erythrocyte suspension, were obtained from the animal facility of the Research and Development Center (CID) of the Spanish National Research Council (CID-CSIC) in Barcelona, Spain. The collection of fresh blood from rabbits adhered strictly to the bioethical guidelines stipulated by Spanish legislation, ensuring ethical treatment of the animals and compliance with research protocols. Heparinized blood samples were centrifuged for 10 min at 3000 rpm. The supernatant containing the white cells was discarded, while the erythrocytes were washed three times in PBS (pH 7.4). Erythrocytes were then suspended in PBS at a cell density of 8 × 10^9 cells/mL. A series of different volumes of a concentrated IL solution (10 to 80 μL) were placed in Eppendorf tubes containing 25 μL of erythrocyte suspension and PBS was added to each tube to a total volume of 1 mL [33]. Samples were shaken for 10 min at rt and the tubes were centrifuged (5 min at 10,000 rpm). The percentage of hemolysis was calculated by comparing the absorbance (540 nm) of the supernatant of the samples containing surfactants with that of the hemolyzed control with distilled water. The HC50 (concentration of surfactant that causes 50% hemolysis) was determined from the concentration-response curves.

A further series deals with MRSA biofilms. In kind it is cell-based, methicillin-resistant Staphylococcus aureus. The note with it: MRSA biofilm, MTT. As to the method:
The biocidal activity of the ester-functionalized choline-based ILs on bacterial and fungal cells in biofilms was assessed by MTT cell viability assays. CnECholBr were evaluated for their potential to kill cells in pre-established biofilms of MRSA and C. albicans, two clinically relevant pathogens. Pre-formed biofilms on 48-wells plates were treated with increasing concentrations of the ester-functionalized choline-based ILs and the cell viability of the sessile cells was quantified by the MTT method. The results obtained for MRSA and C. albicans biofilms are shown in Figure 6a and Figure 6b, respectively.
Antibiofilm activity was assessed against biofilm-forming strains of methicillin-resistant Staphylococcus aureus (MRSA) ATCC 43300 and Candida albicans ATCC 90028. The biofilm inhibition and eradication capacities of ILs were evaluated against adherent bacterial biofilms grown in 96-well microtiter plates. Bacteria were grown on Tryptic soy agar at 37 °C for 24 h and the fungi on Sabouraud agar at 30 °C for 24 h. Bacteria were suspended in lysogeny broth containing glucose (1%) at 1.5 × 10^8 CFU/mL and yeasts were suspended in RPMI medium at 1.5 × 10^7 CFU/mL.
For mature biofilm formation, 200 μL of the bacterial or fungal suspension was added to each well in a 48-well microplate, and incubated for 24 h at 37 °C for bacteria and 30 °C for yeast. The wells were then washed three times with PBS and 200 µL of each test solution with different concentrations of surfactants prepared in MHB (for bacteria) or RPMI medium (for yeasts) was added to each well containing the preformed biofilm. The plates were incubated for 24 h at 30 °C. The medium was removed and the wells were then washed twice with PBS. MTT solution (200 μL) was added to each well and the plate was incubated for 4 h. The MTT was then removed and 200 μL of DMSO was added to solubilize […]. The OD value was recorded at 540 nm. Controls were performed with non-ionic liquids. Each assay was run four times and the results were averaged.

In the next series the test system is Vibrio fischeri. The series is described as follows: Vibrio fischeri bioluminescence inhibition assay. In kind it is cell-based. To be noted: Aliivibrio fischeri, 0.5 h; luminescence inhibition, 30-min exposure, 15 °C; read-out: V. fisheri, EC50 (95% CI). As to the method: To assess the aquatic toxicity of ester-functionalized cholinium-based ILs, a series of toxicity tests were conducted using the saltwater bacterium Vibrio fischeri. The bioluminescence inhibition assay with V. fischeri is a well-standardized and frequently employed method in ecotoxicological studies due to its sensitivity and reliability. The experimental procedure involved exposing V. fischeri to increasing concentrations of ILs and measuring the reduction in bioluminescence after a 30-min period. This bioluminescence reduction serves as a quantitative indicator of the ILs’ aquatic toxicity in marine bacteria.
The V. fisheri bioluminescence assay was used to assess the aquatic toxicity of ester-functionalized choline-based ILs. […] We determined the concentration causing a 50% reduction in bacterial light emission (EC50) through regression analysis. The reported toxicity data are based on a 30-min exposure of the bacteria to the ionic liquid solution at 15 °C.

`CCCCCCCCCCCCOC(=O)C[N+](C)(C)CCO` [C12ECholBr]: the CMC in series [1] is given as 2.9 ± 0.1 mM. For the same compound, the HC50 in series [2] turned out to be 232 ± 2 µM. Also, in the series with MRSA biofilms (concentrations ≥ 128 µg/mL), the “inhibition of cell viability” value is recorded as over 95%. In addition, in the series with Vibrio fischeri, the EC50 stood at 0.27 µg/mL.

As to `CCCCCCCCCCCCCCOC(=O)C[N+](C)(C)CCO.[Br-]` [C14ECholBr, N-(2-hydroxyethyl)-N,N-dimethyl-2-oxo-2-(tetradecyloxy)ethan-1-aminium bromide], the CMC in series [1] amounted to 1.3 ± 0.1 mM. Further, the HC50 in series [2] is 56 µM and 56 ± 1 µM. The cell viability entry in the series on MRSA biofilms (plateau at and above 128 µg/mL) was “around 30%”. The half-maximal effective concentration (EC50) with Vibrio fischeri was determined as 0.44 µg/mL.

For the compound `CCCCCCCCCCOC(=O)C[N+](C)(C)CCO` [C10ECholBr], in series [1], the CMC came out at 9.0 ± 0.5 mM. In series [2], this compound registered a 50% haemolytic concentration (HC50) of over 2500 µM. In the series with MRSA biofilms (at 32 µg/mL), the “reduction in cell viability” value came to 50%. The 50% effective concentration (EC50) with Vibrio fischeri came to 1.7 µg/mL.
